From patent publication US7358076B2, “Sublancin lantibiotic produced by Bacillus subtilis 168” (The University of Maryland, priority 1997, dated 2008)

What was measured:
B. cereus T spores [1] = conditions: from reference (30); cited from earlier work
B. cereus T spores [2] = test: halo assay on agar plates sprayed with spores, extended incubation; assay type: cell-based, Bacillus cereus; conditions: lawns from sprayed B. cereus T spores, incubation for several days, data not shown
Description: Two methods were employed to assay the activity of sublancin 168; a halo assay on plates, and a liquid assay in culture tubes. Both methods used Bacillus cereus T spores as the test organism. 250 mg of spores, prepared as previously described (12), were suspended in 30 mL of distilled water with a glass homogenizer, heat-shocked at 65° C. for 2 hr, centrifuged, and resuspended in 50% ethanol. This suspension was sprayed onto the surface of Medium A-containing agar plates using a Sigma spray unit (St. Louis Mo.). Prior to spraying, 10-20 μL volumes of serial dilutions of purified sublancin were spotted onto the plate. […] growth of the spores, and the diameters of the halos caused by sublancin inhibition were measured, and the minimum amount of peptide that was required to give an observable halo was noted. For the liquid assay, heat-shocked spores were suspended in sterile water to a final concentration of 2 mg/mL, and then added to culture tubes containing 1% BACTO®-tryptone, 0.1 M TRIS®-Pi, pH 6.8. Prior to adding the spores, serial dilutions of sublancin were added to the tubes. The final concentration of spores was 0.1 mg/mL. The tubes were incubated at 37° C. for 3 hr, using sufficient shaking to keep the spores well suspended. […]
The ability of sublancin to inhibit bacterial spore outgrowth was also determined. […]

B. cereus T spores [3] = conditions: cited from earlier work

In the case of `C=C1NC(=O)CC[C@@H](C(=O)O)NC(=O)[C@H](NC(=O)[C@H](CCCCN)NC(=O)[C@@H](N)Cc2c[nH]c3ccccc23)CSC[C@@H](C(=O)N[C@@H]2C(=O)N3CCC[C@H]3C(=O)NCC(=O)N[C@H](C(=O)N[C@H](C(=O)N[C@@H]3C(=O)NCC(=O)N[C@@H](C)C(=O)N[C@@H](CC(C)C)C(=O)N[C@@H](CCC(N)=O)C(=O)N/C(=C/C)C(=O)N[C@H](C(=O)N[C@@H](Cc4ccccc4)C(=O)N[C@@H](CC(C)C)C(=O)N[C@@H](CCC(N)=O)C(=O)N[C@@H]4C(=O)N[C@@H](CC(C)C)C(=O)N[C@H]5C(=O)N[C@@H](CSC4C)C(=O)NC(=O)[C@H](CC(N)=O)N[C@H](C(=O)N[C@@H](CCCCN)C(=O)N[C@H](C(=O)NC(=C)C(=O)N[C@@H](CCCCN)C(=O)O)[C@@H](C)CC)CSC5C)CSC3C)C(C)C)CSC2C)N[C@@H](CC(C)C)C(=O)NC1=O` (stereo partly shown) [subtilin], the “binding and inhibition of spores, reversibility” value (B. cereus T spores [1]) is listed as “irreversibly”, the “appearance of halos after extended incubation of the plates” value (B. cereus T spores [2]) is listed as “remained completely clear” and the “concentration required to inhibit outgrowth of these same spores” value (B. cereus T spores [3]; B. cereus T spores, from references (27,29)) is listed as 80 nM. The “corresponding ratio, spore outgrowth inhibition versus inhibition of exponentially growing cells” value (B. cereus T spores [3]; comparison value for subtilin, same methods as reference (27)) was 30 fold.
